The values below come from patent US9326988B2, “Treatment and/or prevention of parkinson's disease dementia with ceftriaxone” (CHUNG SHAN MEDICAL UNIVERSITY, priority 2012, dated 2016).

Structures are written as SMILES.

Test [1] deals with 6-hydroxydopamine (6-OHDA)-lesioned rats. The note with it: 6-OHDA-lesioned rats (animal model of PD); cited from earlier work.
In the next test the test system is aged-impaired (AI) rats. The note with it: daily dose of 200 mg/kg for 7 days; cited from earlier work.
For test [2], the system named is rats with PDD. Put plainly: Nissl staining of pyramidal neurons in the hippocampal CA1 area of PDD rats. The conditions noted are these: Example 1 treatment group 1: 200 mg/kg daily i.p. for 14 days after MPTP-HCl; determined 15th day (FIG. 6). It is filed as in vivo, male Wistar rats. From the text:
(§1) In order to investigate whether ceftriaxone is effective in ameliorating neuroinflammation and neurodegeneration of the rats with PDD, on the 15th day after the MPTP-HCl injection, four rats were randomly selected from each of the treatment group 1, the sham-operated group 1, and the pathological control group for histopathological analysis.
(§2) The randomly selected rats were sacrificed using CO2, followed by perfusion with 4% paraformaldehyde (in phosphate buffered saline). The brains were rapidly removed and were post-fixed in a 30% sucrose solution containing 4% paraformaldehyde at 4° C. for at least three days. The brains were cut into coronal sections (a thickness of about 30 μm) using a cryostat (Leica CM3050 S, Leica).
In addition, the sections containing the hippocampal CA1 area were selected and were subjected to Nissl staining according to the method well known to and commonly used by one skilled in the art. […] Image Pro Plus Software 6.0 was utilized to estimate the percentage of an area occupied by pyramidal neurons in an area of 2,354 μm^2 according to the semi-quantitative method as described in Xavier L. L. et al. (2005), Brain Research protocols, 16:58-64.
The experimental data are expressed as mean±SEM. […]

Test [3] deals with rats with PDD. Kind of test: Immunohistochemical staining (OX-6) of activated microglia in the SNc of PDD rats. It is filed as in vivo, male Wistar rats. The conditions noted are these: Example 1 treatment group 1: 200 mg/kg daily i.p. for 14 days after MPTP-HCl; determined 15th day (FIG. 5).
Excerpt: as §1, §2
The sections containing SNc were selected. […]
The experimental data are expressed as mean±SEM. The experimental data were subjected to one-way ANOVA and were subsequently subjected to LSD test such that the difference between the pathological control group and the sham-operated group 1, and the difference between the treatment group 1 and the pathological control group could be evaluated. […]

The subject of test [4] is rats with PDD. Kind of test: Object recognition test in MPTP-HCl-induced PDD rats. Format: in vivo, male Wistar rats. Here is the method:
1-methyl-4-phenyl-1,2,3,6-tetrahydropyridine hydrochloride (MPTP-HCl) was used to induce PDD in the rats, and the therapeutic effect of ceftriaxone on PDD was evaluated via behavioral tests and histopathological assessment of the brain for the rats. The experiments of this example were conducted substantially according to the method as described in Ho Y. J. et al. (2011), Behav. Brain Res., 219:280-290.
The rats in the pathological control group, the preventive groups, and the treatment groups were anesthetized using Zoletil (Virbac, Carros, France; 20 mg/kg, intraperitoneal injection). Afterward, 0.5 M MPTP-HCl (in saline) was slowly infused bilaterally into the substantia nigra pars compacta (SNc) of the mesencephalon of each rat in the pathological control group, the preventive groups, and the treatment groups (0.21 mg/side) so as to induce the same to develop PDD.
5 days before the MPTP-HCl injection, ceftriaxone (Sigma) was administered to the rats in the preventive groups 1,2 via intraperitoneal injection respectively at a daily dose of 100 mg/kg and at a daily dose of 200 mg/kg until the end of the 14th day after the MPTP-HCl injection. After the MPTP-HCl injection, ceftriaxone was administered to the rats in the treatment group 1 and the sham-operated groups 2,3 via intraperitoneal injection respectively at a daily dose of 200 mg/kg, at a daily dose of 100 mg/kg, and at a daily dose of 200 mg/kg, and saline was administered to the rats in the pathological control group and the sham-operated group 1 via intraperitoneal injection at a daily dose of 1 mL/kg. In addition, starting on the 3rd day after the MPTP-HCl injection, ceftriaxone was administered to the rats in the treatment groups 2,3 via intraperitoneal injection respectively at a daily dose of 100 mg/kg and at a daily dose of 200 mg/kg. The rats in the pathological control group, the treatment groups 1,2,3, and the sham-operated groups 1,2,3 were subjected to the once-a-day administration until the end of the 14th day after the MPTP-HCl injection.
Starting on the 8th day after the MPTP-HCl injection, the rats in each group were subjected to the T-maze test as described in section C of this example. Starting on the 12th day after the MPTP-HCl injection, the rats in each group were subjected to the object recognition test as described in section D of this example. On the 15th day after the MPTP-HCl injection, the rats in the treatment group 1, the sham-operated group 1, and the pathological control group were subjected to the histopathological analysis as described in section E of this example.
In order to examine the effect of ceftriaxone on the recognition and/or memory ability of the rats with PDD, starting on the 12th day after the MPTP-HCl injection, all of the rats in each group were subjected to an object recognition test lasting a total of three days.
The object recognition test is described as follows. The object recognition test included four trials. The first and second trilas were conducted respectively on the 12th and 13th after the MPTP-HCl injection, and the third and fourth trials were conducted on the 14th day after the MPTP-HCl injection. Each of the four trials lasted 5 minutes. The time interval between the first and second trials, and that between the second and third trials were 1 day. The time interval between the third and fourth trials was 5 minutes. At the beginning of each of the four trials, the respective rat was placed in the open box and adjacent to the corner C4 thereof. During the first, second, and third trials, the objects A1, A2, A3 were disposed in the open box for being able to be explored by the respective rat (see FIG. 2(A)). During the fourth trial, the object A3 was replaced with the object B (see FIG. 2(B)). During the object recognition test, a video camera installed above the open box was used to monitor and record the behavior of the respective rat.

Turning to `CO/N=C(\C(=O)N[C@@H]1C(=O)N2C(C(=O)O)=C(CSc3nc(=O)c(=O)[nH]n3C)CS[C@H]12)c1csc(N)n1` [ceftriaxone, Ceftriaxone], the motor symptoms result in test [1] is recorded as “useful in amelioration of motor symptoms”. For the same compound, the “neuroprotection of dopaminergic neurons” value in test [1] is “neuroprotection of dopaminergic neurons”. Moreover, the cognitive impairment entry in the test with aged-impaired (AI) rats is on record as “able to ameliorate cognitive impairment of the AI rats”. Besides, in the test on rats with PDD [2], the “percentage of an area occupied by pyramidal neurons in the hippocampal CA1 area compared to the pathological control group” value is reported as “significantly higher”. Also, the “density of activated microglia in the SNc compared to the pathological control group” value in the test with rats with PDD [3] is given as “significantly lower”. Also, the “percentage of exploration time spent on object B in the fourth trial versus object A3 in the third trial” value in the test with rats with PDD [4] (Example 1 preventive group 1: 100 mg/kg daily i.p. from 5 days before MPTP-HCl, determined 14th day (FIG. 4)) is listed as “there is statistical significance”; with rats with PDD [4] (Example 1 preventive group 2: 200 mg/kg daily i.p. from 5 days before MPTP-HCl, determined 14th day (FIG. 4)), “there is statistical significance”; with rats with PDD [4] (Example 1 treatment group 1: 200 mg/kg daily i.p. after MPTP-HCl injection to 14th day, determined 14th day (FIG. 4)), “there is statistical significance”; in the test on rats with PDD [4] (Example 1 treatment group 2: 100 mg/kg daily i.p. starting 3rd day after MPTP-HCl, determined 14th day (FIG. 4)) it was “there is statistical significance”; in the test on rats with PDD [4] (Example 1 treatment group 3: 200 mg/kg daily i.p. starting 3rd day after MPTP-HCl, determined 14th day (FIG. 4)), “there is statistical significance”; in the test with rats with PDD [4] (Example 2 treatment group 1: 10 mg/kg daily i.p. after MPTP-HCl injection, determined 14th day (FIG. 8)), “there is statistical significance”. For the same compound, the “percentage of exploration time spent on object B in the fourth trial versus object A3 in the third trial” value in the test on rats with PDD [4] (Example 2 treatment group 2: 50 mg/kg daily i.p. after MPTP-HCl injection, determined 14th day (FIG. 8)) is “there is statistical significance”.
